For 18 molecules, TGI and GI50 results are on record in PubChem BioAssay (NCI).

Molecules are shown by their SMILES.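 1) Cells in 96-well plates. 2) Compound, 48 h, 5 concentrations. 3) Linear interpolation between surrounding doses. 4) Unreached endpoint = highest concentration. GI50: concentration for 50% inhibition of growth. Definition used: TGI = concentration required for complete inhibition of growth.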

Assay in all cases: NCI tumour cell line growth inhibition, 48 h
The test system of experiment [1] is U251 CNS.
The test system of experiment [2] is NCI-H460 lung.
In experiment [3] the test system is UO-31 renal.
The subject of experiment [4] is M14 melanoma.
The subject of experiment [5] is A498 renal.
For experiment [6], the system named is EKVX NSCLC.
The test system of experiment [7] is SF-539 CNS.
Experiment [8] deals with SF-268 CNS.
Experiment [9] relates to SW-620 colon.
The subject of experiment [10] is IGROV1 ovarian.

Take `O=C(NO)C12C3C4C1C1C2C3C41C(=O)NO` (centres undefined): the TGI in experiment [1], in experiment [2], in experiment [3], in experiment [4], in experiment [5] and in experiment [6] was greater than 100 µM each time. Moreover, the TGI in experiment [7] and in experiment [8] was greater than 100 µM each time.
For the molecule `CCN(CC)C(=O)COc1ccc(Br)cc1Br`, the TGI in [1], in experiment [2], in experiment [3], in experiment [4], in [9] and in [5] was greater than 100 µM in each case. Besides, the values for the TGI in experiment [6], in experiment [7] and in experiment [8] were 58 µM, greater than 100 µM and greater than 100 µM, respectively.
Regarding `Cc1cc(O)cc2c1O[C@@]1(C)CCC3[C@@]4(C)CC[C@H](O)C(C)(C)C4CC[C@@]3(C)[C@H]1C2` (some centres undefined), the TGI was 11.5 µM in [1]; 17.5 µM in experiment [2]; 22.6 µM in experiment [3]; 24.3 µM in experiment [4]; 23.5 µM in experiment [9]; 36.3 µM in experiment [5]. Besides, the TGI was determined as 31.4 µM in [6], 30.2 µM in [10] and 6.43 µM in experiment [7].
As to `COc1ccc2c(c1)OC[C@@H]1c3cc4c(cc3O[C@H]21)OCO4`, the TGI in experiment [1], in experiment [2], in experiment [3], in experiment [4], in experiment [9] and in experiment [5] was greater than 100 µM throughout. Moreover, the TGI in [6], in [7] and in experiment [8] was greater than 100 µM throughout.
Regarding `c1ccc(CN(Cn2cccn2)Cn2cccn2)nc1`, the TGI in [1], in experiment [2], in experiment [3], in experiment [4], in experiment [9] and in experiment [5] was greater than 100 µM throughout. The TGI in experiment [6] and in experiment [8] was greater than 100 µM each time.
As for `COc1ccc2nc3ccccc3c(NCCCCCCN(C)CCCl)c2c1`, the TGI in experiment [1] turned out to be 1.75 µM; in [2], 1.46 µM; in [4], 2.3 µM; in experiment [9] it was 1.52 µM; in [5] it was 2.53 µM; in experiment [6], 3.45 µM. Also, the TGI in experiment [7] turned out to be 2.11 µM; in experiment [8] it was 2.48 µM.
In the case of `Nc1ccc(/C=N/Nc2ccnc3c(N)cccc23)c2cccnc12`, the GI50 in experiment [1] was 1.61 µM; in experiment [4] it was 1.87 µM; in [5] it was 1.79 µM; in experiment [6], 1.63 µM; in [7] it was 1.74 µM. For the same molecule, the TGI in [1] turned out to be 3.09 µM; in experiment [4], 3.49 µM; in experiment [5], 3.3 µM; in [6] it was 3.34 µM; in experiment [7], 3.15 µM.
In the case of `COc1ccc(-c2nc(-c3nc4ccc(OC)cc4[nH]3)cc3c2[nH]c2ccccc23)cc1`, the GI50 was 2.89 µM in experiment [1]; 2.05 µM in experiment [2]; 1.66 µM in experiment [3]; 3.34 µM in experiment [4]; 4.83 µM in experiment [9]; 3.34 µM in experiment [5]. The GI50 in experiment [10] was 2.83 µM; in experiment [7] it was 9.29 µM; in experiment [8], 4.9 µM. The TGI in experiment [1], in experiment [2], in [3], in [4], in experiment [9] and in experiment [5] was greater than 100 µM each time. Also, the TGI in experiment [10], in experiment [7] and in experiment [8] was greater than 100 µM each time.
`CN(C)CC1(C)CC/C(=C\c2ccccc2)C1=O` (centres undefined): the TGI in experiment [1], in experiment [2], in [3], in experiment [4], in experiment [9] and in experiment [5] was greater than 100 µM throughout. Moreover, the TGI in experiment [10], in experiment [7] and in [8] was greater than 100 µM each time.
For `O=C(Nc1c(O)[nH]c(=S)[nH]c1=O)c1ccc2ccccc2n1`, the TGI in experiment [1], in experiment [2], in experiment [3], in [4], in experiment [9] and in experiment [5] was greater than 100 µM each time. For the same molecule, the TGI in experiment [10], in experiment [7] and in [8] was greater than 100 µM throughout.
For the molecule `O=C1CCC2(CC1)SCCCS2`, the TGI in [1], in experiment [2], in [3], in experiment [4], in [9] and in experiment [5] was greater than 100 µM each time. Besides, the TGI in experiment [6], in [10] and in experiment [8] was greater than 100 µM in each case.
For the molecule `O=C(/C=C\c1ccc(Cl)cc1Cl)c1cccs1`, the TGI in experiment [2] turned out to be 89.5 µM; in experiment [3] it was 25 µM; in [4], 35.1 µM; in [9] it was 28.8 µM; in [5] it was 39 µM; in [6], 34.3 µM. In addition, the TGI in [7] is 36.5 µM; in experiment [8], 53.3 µM.
Take `CCCc1nc2c(C)cc(-c3nc4ccccc4n3C)cc2n1Cc1ccc(-c2ccccc2C(=O)O)cc1`: the GI50 was 20.2 µM in [1]; 32.5 µM in experiment [2]; 19.3 µM in experiment [3]; 34.5 µM in experiment [4]; 49.3 µM in experiment [9]; 20.4 µM in experiment [5]. The GI50 in [10] was 43.5 µM; in experiment [7], 46.5 µM; in experiment [8], 44.1 µM. The TGI in [1] was 51.8 µM; in experiment [2], greater than 100 µM; in experiment [3], 51.5 µM; in experiment [4] it was greater than 100 µM; in experiment [9], greater than 100 µM; in experiment [5], greater than 100 µM. The TGI in experiment [10], in experiment [7] and in experiment [8] was greater than 100 µM in each case.
With `NCCNC(=S)S`, the TGI in [1], in experiment [3], in experiment [4], in [9], in experiment [5] and in experiment [6] was greater than 100 µM each time. The TGI in experiment [10] is greater than 100 µM; in experiment [8], 31.1 µM.
In the case of `Cc1[nH]c(=O)[nH]c(=O)c1CO`, the GI50 in [1], in experiment [2], in experiment [3], in experiment [4], in experiment [9] and in experiment [5] was greater than 100 µM each time. In addition, the GI50 in experiment [10], in experiment [7] and in experiment [8] was greater than 100 µM in each case. Besides, the TGI in experiment [1], in experiment [2], in experiment [3], in experiment [4], in experiment [9] and in [5] was greater than 100 µM each time. Further, the TGI in experiment [10], in [7] and in [8] was greater than 100 µM throughout.
Regarding `COc1cc(-c2cc(-c3nc4ccc(Cl)cc4[nH]3)[nH]n2)cc(OC)c1OC`, the GI50 in [1] is 3.38 µM; in experiment [2] it was 3.65 µM; in experiment [3], 2.64 µM; in experiment [4], 2.92 µM; in experiment [9] it was 4.99 µM; in experiment [5] it was 2.1 µM. Moreover, the figures for the GI50 in experiment [10], in experiment [7] and in experiment [8] were 3.42 µM, 4.66 µM and 3.6 µM, respectively. Besides, the TGI in experiment [1] is 14.1 µM; in experiment [2] it was 14 µM; in [3], 11.2 µM; in experiment [4] it was 9.96 µM; in experiment [9], 18.6 µM; in experiment [5], 11 µM. Moreover, the TGI turned out to be 16.3 µM in experiment [10], 18.3 µM in experiment [7] and 13.2 µM in experiment [8].
As for `NCc1nnn(Cc2ccccc2)c1N`, the TGI in experiment [1], in [2], in experiment [4], in [9], in [5] and in experiment [6] was greater than 100 µM in each case. Besides, the TGI in experiment [10], in [7] and in [8] was greater than 100 µM throughout.
Turning to `N#CCCN(c1ccc(-c2nnc(NC(=O)CNNC(=O)CC(=O)Nc3ccccc3)s2)cc1)S(=O)(=O)c1ccccc1`, the TGI in experiment [1], in [2], in experiment [3], in experiment [9], in experiment [5] and in experiment [6] was greater than 100 µM each time. In addition, the TGI in experiment [10], in [7] and in [8] was greater than 100 µM in each case.
